Laboratory results published in US10363239B2, “Method for inhibiting growth of cancer cells” (Pain Therapeutics, Inc., priority 2013, dated 2019).

What was measured:
Type in all cases: cell-based, human
[1] = system: FLNA-bound K-ras and ras-GAP in lung fibroblasts; experiment: FLNA-bound K-ras and ras-GAP (immunoprecipitation, Western blotting)
Experimental: Thus, melanoma, two different pancreatic cancerous cell lines (MiaPaCa2 and BxPc3) and a glioblastoma cell line (U87) were treated with zero (vehicle), 0.1, 0.5, 1 and 5 nM Compound C0105 as previously discussed, and FLNA-bound K-ras and ras-GAP were immunoprecipitated, separated by Western blotting and the blot densities determined as discussed previously.
To study the effect of Compound C0105 on pS^2152FLNA levels, FLNA linkages to key regulators including protein phosphatases as well as activated Akt (pS^473-, pT^308-Akt), mTOR (pS^2442mTOR) and ERK (pY/pT-ERK) levels, the cancer and normal cells were cultured to approximately 90% confluency and treated with vehicle or varying concentrations of Compound C0105. […]
The cell lysates were diluted 5-fold with immunoprecipitation buffer and immunoprecipitated with anti-FLNA, -Akt, -mTOR and -ERK2 as described previously [Talbot et al., J Clin Inv 122(4):1-23 (2012); Wang et al., J Neurosci 32(29):9773-9784 (2012)]. The levels of FLNA linkages, activated phosphorylated Akt (pS^473 and pT^308), phosphorylated mTOR (pS^2448) and phosphorylated ERK2 (pY/pT) were determined in anti-FLNA, -Akt, -mTOR and -ERK2 immunoprecipitates by Western blotting with appropriate antibodies directed against PTEN, PP2A, K-RAS, ras-GAP (FLNA linkages), pS^473Akt, pT^308Akt, pS^2448mTOR and pY/pT ERK2 (activation of Akt, mTOR and ERK2). […]

[2] = system: glioblastoma (U-87MG) cells; experiment: Cell proliferation by cell-cycling markers Ki67 and PCNA (Western blots); conditions: 0.1-5 nM; 4 days
Experimental: The effect of contact with Compound C0105 on cell proliferation was determined by the levels of cell-cycling markers: Ki67 and PCNA using Western blots in glioblastoma (U-87MG) cells. Cells contacted with vehicle and 0.1-5 nM Compound C0105 for 4 days were collected, washed and solubilized. The resultant cell lysates were size-fractionated on SDS-PAGE and Western blotting to determine the levels of Ki67, PCNA and actin (loading control). The protein bands were quantified using densitometric scanning. […] N=4. *p<0.01 compared to vehicle (open bars).
(§1) To study the effect of Compound C0105 on PI3K activity, the cancer and primary normal cells were cultured to approximately 60-70% confluency, serum deprived for 4 hours, briefly washed with PBS and treated with vehicle or 0.1, 0.5, 1 or 5 nM Compound C0105 for 24 hours with in 0.1% FBS-containing culture medium. The cells were then washed with PBS, scraped off and collected by centrifugation. The cell pellets were sonicated in ice-cold immunoprecipitation buffer and protein concentrations measured by the Bradford method. […]
(§2) Immunoreactivity was visualized by reaction in ECL Plus chemiluminescent reagent for exactly 5 minutes, followed by immediate exposure of the blot to X-ray film (Z & Z Medical). Bands at the relevant molecular masses of Ki67 and PCNA were quantified by densitometric scan. […]

melanoma cells = experiment: as above; conditions: 0.1-5 nM; 4 days
Experimental: The effect of contact with Compound C0105 on cell proliferation was determined by the levels of cell-cycling markers: Ki67 and PCNA (proliferating cell nuclear antigen) using Western blots in human melanoma cells. Cells treated with vehicle and 0.1-5 nM C0105 for 4 days were collected, washed and solubilized (lysed). The resultant cell lysates were size-fractionated on SDS-PAGE and Western blotting to determine the levels of Ki67, PCNA and actin (loading control). The protein bands were quantified using densitometric scanning. […] N=4. *p<0.01 compared to vehicle (open bars).
as §1, §2

[3] = system: GTP-bound K-ras in melanoma cells; experiment: Active K-ras (GTP-bound K-ras) Raf1 RBD pull-down assay; conditions: 0.1, 0.5, 1 and 5 nM; 4-day treatment
Experimental: (§3) FIGS. 31A and 31B illustrate the effects of illustrative Compound C0105 on levels of active K-ras (GTP-bound K-ras), assessed using the agarose bead-bound Raf1 RBD pull-down assay in melanoma, two different pancreatic cancerous cell lines (MiaPaCa2 and BxPc3) and a glioblastoma cell line (U87). The cells were treated (contacted) with zero (vehicle), 0.1, 0.5, 1 and 5 nM Compound C0105 as previously discussed. The thus obtained GTP-bound K-ras was subjected to Western blotting using anti-ras antibodies for identification, the blot densities determined and statistically analyzed as discussed previously.
(§4) In a separate series of studies, the level of active K-RAS (GTP-bound K-RAS) was determined by precipitation using Raf RBD-conjugated agarose beads from 100 μg of lysates of cancer cells (prepared as described above) following 4-day treatment with varying concentrations of Compound C0105. To ascertain even loading, actin in the cell lysates was immunoprecipitated with goat anti-actin. The precipitates were collected by centrifugation, washed and the active K-RAS and actin eluted by boiling for 5 min in 1×SDS-PAGE. The levels of active K-RAS and actin in 50 μg of cell lysates were size-fractionated on 12% SDS-PAGE, electrophorectically transferred to nitrocellulose membranes and determined by Western blotting with specific monoclonal antibodies against K-RAS and actin.

[4] = system: GTP-bound K-ras in glioblastoma cell line (U87); experiment: as above; conditions: 0.1, 0.5, 1 and 5 nM; 4-day treatment
Experimental: as §3, §4

[5] = system: GTP-bound K-ras in MiaPaCa2 cells; experiment: as above; conditions: 0.1, 0.5, 1 and 5 nM; 4-day treatment
Experimental: as §3, §4

[6] = system: GTP-bound K-ras in BxPc3 cells; experiment: as above; conditions: 0.1, 0.5, 1 and 5 nM; 4-day treatment
Experimental: as §3, §4

CN1CCC2(CC1)NCC(=O)N2Cc1ccccc1 [Compound C0105]
FLNA-associated K-ras and ras-GAP [1]: had no effect on fibroblasts
Cell proliferation (Ki67 and PCNA levels) [2]: reduces cell proliferation
Cell proliferation (Ki67 and PCNA levels) (melanoma cells): reduces cell proliferation
GTP-bound K-ras (active K-ras) level [3]: reduced GTP-bound K-ras
GTP-bound K-ras (active K-ras) level [4]: reduced GTP-bound K-ras
GTP-bound K-ras (active K-ras) level [5]: reduced GTP-bound K-ras
GTP-bound K-ras (active K-ras) level [6]: reduced GTP-bound K-ras
